Data as given in EP1561465A2, “Methods of use of fluoroquinolone compounds against bacteria” (LG Life Sciences, Ltd., priority 1999, dated 2001).
Values after ≈ are worked out from the molar mass of the structure shown. Read-outs that look alike come from different tables or passages of the source.

Tests used:
Type in all cases: cell-based
[1] = tested on: Hafnia alvei; experiment: MIC by agar dilution (NCCLS M7-A4), 288 enteropathogenic isolates, eight quinolones; settings: Hafnia alvei (n = 32)
[2] = tested on: Staphylococcus aureus; experiment: MIC by agar dilution (NCCLS), 411 isolates Buenos Aires 1998-99; settings: for MIC90: Staphylococcus aureus
[3] = tested on: Campylobacter jejuni; experiment: MIC by agar dilution (NCCLS M7-A4), 5% sheep blood, microaerophilic 48 h; settings: Campylobacter jejuni (n=91)
[4] = tested on: Yersinia enterocolitica; experiment: MIC by agar dilution (NCCLS M7-A4), 288 enteropathogenic isolates, eight quinolones; settings: Yersinia enterocolitica (n = 22)
[5] = tested on: Salmonella spp.; experiment: as above; settings: for MIC: ciprofloxacin MIC ≥[…], read-out: MIC
[6] = tested on: Streptococcus pneumoniae; experiment: MIC by two-fold serial agar dilution, Sensitivity Disk agar-N (Kitasato isolates); settings: for MIC90: read-out: MIC90; for MIC: read-out: MIC Range
[7] = tested on: Enterobacter cloacae; experiment: MIC by NCCLS broth microdilution, 1100 Japanese clinical isolates 1997-1998; settings: Enterobacter cloacae (n=40)
[8] = tested on: Enterobacter aerogenes; experiment: as above; settings: Enterobacter aerogenes (n=35)
[9] = tested on: Streptococcus pyogenes; experiment: as above; settings: Streptococcus pyogenes (n=51)
[10] = tested on: E. coli; experiment: microbe, parasite or virus in culture; settings: Escherichia coli
[11] = tested on: Klebsiella oxytoca; experiment: MIC by NCCLS broth microdilution, 1100 Japanese clinical isolates 1997-1998; settings: Klebsiella oxytoca (n=40)
[12] = tested on: Proteus mirabilis; experiment: as above; settings: Proteus mirabilis (n=30)
[13] = tested on: Enterococcus faecium; experiment: as above; settings: for MIC: Enterococcus faecium
[14] = tested on: Enterococcus gallinarum; experiment: as above; settings: Enterococcus gallinarum, GALLINARUM
[15] = tested on: Klebsiella pneumoniae; experiment: as above; settings: Klebsiella pneumoniae (n=35)
[16] = S. aureus, Methicillin resistant (n = 14)

SMILES: CC1COc2c(N3CCN(C)CC3)c(F)cc3c(=O)c(C(=O)O)cn1c23 (centres unmarked) [Ofloxacin, ofloxacin]
- % Susceptible [1]: 100%
- MIC50 [1]: 0.03 µg/mL (≈ 0.083 µM)
- MIC90 [1]: 0.03 µg/mL (≈ 0.083 µM)
- MIC Range [1]: 0.03 µg/mL (≈ 0.083 µM)
- Resistance (%) [2, 16]: 100%
- Resistance (%) ([2]; S. aureus, Methicillin susceptible (n = 66)): 0%
- MIC90 [2, 16]: 16 µg/mL (≈ 44.3 µM)
- MIC90 ([2]; Staphylococcus aureus (n = 80)): 8 µg/mL (≈ 22.1 µM)
- % Susceptible [3]: 31.86%
- MIC50 [3]: 16 µg/mL (≈ 44.3 µM)
- MIC90 [3]: 32 µg/mL (≈ 88.6 µM)
- % Susceptible [4]: 100%
- MIC50 [4]: 0.12 µg/mL (≈ 0.332 µM)
- MIC90 [4]: 0.12 µg/mL (≈ 0.332 µM)
- MIC Range [4]: 0.03 to 0.5 µg/mL
- MIC ([5]; S. hadar (n = 2)): 2 µg/mL (≈ 5.53 µM)
- MIC ([5]; S. newport (n = 1)): 2 µg/mL (≈ 5.53 µM)
- % Susceptible ([5]; Salmonella spp. (n = 106)): 100%
- MIC50 ([5]; Salmonella spp. (n = 106)): 0.12 µg/mL (≈ 0.332 µM)
- MIC90 ([5]; Salmonella spp. (n = 106)): 0.5 µg/mL (≈ 1.38 µM)
- MIC Range ([5]; Salmonella spp. (n = 106)): 0.06 to 2 µg/mL
- MIC ([5]; Salmonella, S. tshiongwe (n = 1)): 2 µg/mL (≈ 5.53 µM)

SMILES: NC1CCN(c2nc3c(cc2F)c(=O)c(C(=O)O)cn3-c2ccc(F)cc2F)C1 (centres unmarked) [Tosufloxacin, tosufloxacin]
- MIC50 ([6]; Ciprofloxacin-susceptible (94)): 0.125 µg/mL (≈ 0.309 µM)
- MIC50 ([6]; Erythromycin-resistant (37)): 0.125 µg/mL (≈ 0.309 µM)
- MIC50 ([6]; Minocycline-resistant (37)): 0.125 µg/mL (≈ 0.309 µM)
- MIC50 ([6]; Streptococcus pneumoniae): 0.125 µg/mL (≈ 0.309 µM)
- MIC90 ([6]; Streptococcus pneumoniae, 18 h, Ciprofloxacin-resistant (21), ciprofloxacin MIC ≥8 µg/ml): 8 µg/mL (≈ 19.8 µM)
- MIC ([6]; Streptococcus pneumoniae, 18 h, Ciprofloxacin-resistant (21)): 0.25 to 16 µg/mL (≈ 0.618 to 39.6 µM)
- MIC ([6]; Streptococcus pneumoniae, 18 h, Ciprofloxacin-susceptible (94)): 0.063 to 0.5 µg/mL (≈ 0.156 to 1.24 µM)
- MIC ([6]; Streptococcus pneumoniae, 18 h, Erythromycin-resistant (37)): 0.063 to 4 µg/mL (≈ 0.156 to 9.89 µM)
- MIC ([6]; Streptococcus pneumoniae, 18 h, Minocycline-resistant (37)): 0.063 to 4 µg/mL (≈ 0.156 to 9.89 µM)
- MIC ([6]; Streptococcus pneumoniae, 18 h, Penicillin-resistant (19)): 0.063 to 0.5 µg/mL (≈ 0.156 to 1.24 µM)
- MIC50 ([6]; Streptococcus pneumoniae, Ciprofloxacin-resistant (21), read-out: MIC50): 4 µg/mL (≈ 9.89 µM)
- MIC90 ([6]; Streptococcus pneumoniae, Ciprofloxacin-susceptible (94)): 0.25 µg/mL (≈ 0.618 µM)
- MIC90 ([6]; Streptococcus pneumoniae, Erythromycin-resistant (37)): 0.5 µg/mL (≈ 1.24 µM)
- MIC90 ([6]; Streptococcus pneumoniae, Minocycline-resistant (37)): 0.5 µg/mL (≈ 1.24 µM)
- MIC90 ([6]; Streptococcus pneumoniae, Penicillin-resistant (19)): 0.25 µg/mL (≈ 0.618 µM)
- MIC50 [7]: 0.032 µg/mL (≈ 0.0791 µM)
- MIC90 [7]: 1 µg/mL (≈ 2.47 µM)
- MIC Range [7]: ≤0.008 to 2 µg/mL
- MIC Range [8]: 0.016 to 0.125 µg/mL
- MIC50 ([8]; Klebsiella aerogenes): 0.016 µg/mL (≈ 0.0396 µM)
- MIC90 ([8]; Klebsiella aerogenes): 0.063 µg/mL (≈ 0.156 µM)
- MIC90 [9]: 1 µg/mL (≈ 2.47 µM)
- MIC Range [9]: 0.063 to 1 µg/mL
- MIC50 ([9]; read-out: MIC50): 0.25 µg/mL (≈ 0.618 µM)
- MIC50 ([10]; E. coli (13 strains), quinolone-resistant, read-out: MIC50): 0.063 µg/mL (≈ 0.156 µM)
- MIC90 ([10]; E. coli (13 strains), quinolone-resistant, read-out: MIC90): 0.25 µg/mL (≈ 0.618 µM)
- MIC ([10]; E. coli KU1029, mutant type SP (spontaneous mutant in the DNA gyrase)): 0.063 µg/mL (≈ 0.156 µM)
- MIC ([10]; E. coli KU1030, mutant type SP): 0.031 µg/mL (≈ 0.0767 µM)
- MIC ([10]; E. coli KU1031, mutant type SP): 0.031 µg/mL (≈ 0.0767 µM)
- MIC ([10]; E. coli KU1032, mutant type SP): 0.125 µg/mL (≈ 0.309 µM)
- MIC ([10]; E. coli KU1033, mutant type SP): 0.031 µg/mL (≈ 0.0767 µM)
- MIC ([10]; E. coli KU1034, mutant type GA (DNA gyrase A)): 0.25 µg/mL (≈ 0.618 µM)
- MIC ([10]; E. coli KU1035, mutant type GA (DNA gyrase A)): 0.25 µg/mL (≈ 0.618 µM)
- MIC ([10]; E. coli KU1036, mutant type GB (DNA gyrase B)): 0.031 µg/mL (≈ 0.0767 µM)
- MIC ([10]; E. coli KU1038, mutant type SP): 0.063 µg/mL (≈ 0.156 µM)
- MIC ([10]; E. coli KU1039, mutant type SP): 0.063 µg/mL (≈ 0.156 µM)
- MIC ([10]; E. coli KU1040, mutant type SP): ≤ 0.008 µg/mL
- MIC ([10]; E. coli KU1041, mutant type SP): 0.25 µg/mL (≈ 0.618 µM)
- MIC ([10]; E. coli KU1042, mutant type SP): 0.063 µg/mL (≈ 0.156 µM)
- MIC50 [11]: 0.032 µg/mL (≈ 0.0791 µM)
- MIC90 [11]: 4 µg/mL (≈ 9.89 µM)
- MIC Range [11]: ≤0.008 to 16 µg/mL
- MIC Range [12]: 0.063 to 16 µg/mL
- MIC50 ([12]; read-out: MIC50): 0.25 µg/mL (≈ 0.618 µM)
- MIC90 ([12]; read-out: MIC90): 0.5 µg/mL (≈ 1.24 µM)
- MIC50 ([13]; Enterococcus faecium (n=39)): > 16 µg/mL
- MIC90 ([13]; Enterococcus faecium (n=39)): > 16 µg/mL
- MIC ([13]; Enterococcus faecium (vanA) vancomycin resistant, strain TMS1): > 16 µg/mL
- MIC ([13]; Enterococcus faecium (vanA) vancomycin resistant, strain TMS2): 2 µg/mL (≈ 4.95 µM)
- MIC ([13]; Enterococcus faecium (vanA) vancomycin resistant, strain TMS3): > 16 µg/mL
- MIC ([13]; Enterococcus faecium (vanA) vancomycin resistant, strain TMS4): > 16 µg/mL
- MIC ([13]; Enterococcus faecium (vanA) vancomycin resistant, strain TMS5): 4 µg/mL (≈ 9.89 µM)
- MIC ([13]; Enterococcus laecium (van B) vancomycin resistant, strain TMS6): > 16 µg/mL
- MIC ([13]; Enterococcus laecium (van B) vancomycin resistant, strain TMS7): > 16 µg/mL
- MIC [14]: 0.125 µg/mL (≈ 0.309 µM)
- MIC ([14]; Enterococcus gallinarum (vanC1), strain TMS1, read-out: MIC): 0.25 µg/mL (≈ 0.618 µM)
- MIC ([14]; Enterococcus gallinarum (vanC1), strain TMS2, read-out: MIC): 0.5 µg/mL (≈ 1.24 µM)
- MIC ([14]; Enterococcus gallinarum (vanC1), strain TMS3, read-out: MIC): 0.5 µg/mL (≈ 1.24 µM)
- MIC50 [15]: 0.032 µg/mL (≈ 0.0791 µM)
- MIC Range [15]: 0.016 to 2 µg/mL
- MIC90 ([15]; read-out: MIC90): 0.063 µg/mL (≈ 0.156 µM)
